# From patent US20080051387A1, “TETRAHYDROPYRIDO[3,4-D]PYRIMIDINES AND RELATED ANALOGUES” (priority 2006, published 2008)
# Target: T1, chimeric human H3 receptor (Homo sapiens, UniProt Q9Y5N1)
# T1 construct: rat Galpha-i2 (Gnai2, rat); made in house; host or cells: Sf9 insect cells (baculovirus); P2 membranes
# Assay: Chimeric human H3 receptor screening GTP binding assay (inhibition of histamine-stimulated GTP-gamma35S binding, Example 8)
# Type: biochemical
# Details: symbol ! in Ki; test compound 4 μM, 1 μM histamine; read-out: percent inhibition of agonist-induced GTP-gammaS binding to H3
# Method in brief: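 Sf9 membranes co-expressing chimeric human H3 receptor and heterotrimeric G-protein (35 μg protein) incubated 60 min at room temperature with 4 μM compound, 1 μM histamine and 125 pM GTP-gamma35S in pH 7.4 buffer with 10 μM GDP. Filter-bound radioactivity, nonspecific (10 μM GTP-gammaS) subtracted, reported as % inhibition of histamine signal.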
# T1 sequence (Q9Y5N1 with tags, fused parts or gaps): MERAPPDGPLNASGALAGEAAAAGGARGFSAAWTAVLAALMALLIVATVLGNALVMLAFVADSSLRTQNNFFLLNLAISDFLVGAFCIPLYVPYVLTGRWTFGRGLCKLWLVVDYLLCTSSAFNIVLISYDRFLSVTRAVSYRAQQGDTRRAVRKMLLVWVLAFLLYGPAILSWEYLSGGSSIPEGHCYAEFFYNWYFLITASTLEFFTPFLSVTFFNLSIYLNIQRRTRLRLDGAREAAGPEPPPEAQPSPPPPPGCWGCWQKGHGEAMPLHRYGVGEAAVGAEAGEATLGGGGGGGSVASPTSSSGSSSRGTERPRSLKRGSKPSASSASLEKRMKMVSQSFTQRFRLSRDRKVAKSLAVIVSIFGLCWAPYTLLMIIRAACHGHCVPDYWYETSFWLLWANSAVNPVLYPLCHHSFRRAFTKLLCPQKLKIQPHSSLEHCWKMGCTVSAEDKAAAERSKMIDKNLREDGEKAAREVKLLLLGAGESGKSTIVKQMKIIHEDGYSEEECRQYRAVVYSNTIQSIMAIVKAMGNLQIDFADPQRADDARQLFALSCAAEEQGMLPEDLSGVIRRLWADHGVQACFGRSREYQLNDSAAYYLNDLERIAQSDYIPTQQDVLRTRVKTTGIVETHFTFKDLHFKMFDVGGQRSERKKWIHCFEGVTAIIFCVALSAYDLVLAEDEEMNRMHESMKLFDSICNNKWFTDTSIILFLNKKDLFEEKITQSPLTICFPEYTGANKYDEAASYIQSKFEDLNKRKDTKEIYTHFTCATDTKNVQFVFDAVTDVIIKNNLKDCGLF
row,inhibition at 4 µM [%],SMILES
1,≥ 90,"COc1ccc(OC)c(CN2CCc3nc(N4CCN(C5CCC5)CC4)ncc3C2)c1 [Compound 641, 2-(4-cyclobutylpiperazin-1-yl)-6-(2,5-dimethoxybenzyl)-5,6,7,8-tetrahydropyrido[4,3-d]pyrimidine]"
2,≥ 90,"CCn1cncc1CN1CCc2nc(N3CCN(C4CCC4)CC3)ncc2C1 [Compound 642, 2-(4-cyclobutylpiperazin-1-yl)-6-[(1-ethyl-1H-imidazol-5-yl)methyl]-5,6,7,8-tetrahydropyrido[4,3-d]pyrimidine]"
3,≥ 90,"c1cc(N2CCCC2)ncc1CN1CCc2nc(N3CCN(C4CCC4)CC3)ncc2C1 [Compound 643, 2-(4-cyclobutylpiperazin-1-yl)-6-[(6-pyrrolidin-1-ylpyridin-3-yl)methyl]-5,6,7,8-tetrahydropyrido[4,3-d]pyrimidine]"
4,≥ 90,"Cc1c(F)cccc1CN1CCc2nc(N3CCN(C4CCC4)CC3)ncc2C1 [Compound 644, 2-(4-cyclobutylpiperazin-1-yl)-6-(3-fluoro-2-methylbenzyl)-5,6,7,8-tetrahydropyrido[4,3-d]pyrimidine]"
5,≥ 90,"Clc1ccccc1CN1CCc2nc(N3CCN(C4CCC4)CC3)ncc2C1 [Compound 645, 6-(2-chlorobenzyl)-2-(4-cyclobutylpiperazin-1-yl)-5,6,7,8-tetrahydropyrido[4,3-d]pyrimidine]"
6,≥ 90,"Clc1ccc(CN2CCc3nc(N4CCN(C5CCC5)CC4)ncc3C2)c(Cl)c1 [Compound 646, 2-(4-cyclobutylpiperazin-1-yl)-6-(2,4-dichlorobenzyl)-5,6,7,8-tetrahydropyrido[4,3-d]pyrimidine]"
7,≥ 90,"c1cc(N2CCCC2)ccc1CN1CCc2nc(N3CCN(C4CCC4)CC3)ncc2C1 [Compound 647, 2-(4-cyclobutylpiperazin-1-yl)-6-(4-pyrrolidin-1-ylbenzyl)-5,6,7,8-tetrahydropyrido[4,3-d]pyrimidine]"
